Test results from patent US10766869B2, “Triazoles for the treatment of demyelinating dieases” (Vertex Pharmaceuticals Incorporated, priority 2015, dated 2020).
Where two headings read alike, the source gives them in different places.

Tested on: primary rat mixed cortical cells
Assay: In vitro myelination assay (MBP positive myelin strands, fold myelin pixels above background)
Format: cell-based
Details: Rattus norvegicus; for fold induction at 1 µM: 1.0 μM compound; for fold induction at 10 µM: 10.0 μM compound
Summary of the method: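 P1 rat cortical cells (neurons, OPCs, oligodendrocytes, astrocytes, microglia) were cultured 14 days at 37 °C with compound, with half-medium changes containing 1× compound on days 6 and 10. Fixed cells were immunostained for MBP and imaged at 10×. Total MBP myelin pixels per well were expressed as fold above no-compound baseline at 1.0 μM and 10.0 μM.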

[1] = relative to baseline of no added compound, read-out: Fold myelin pixels above background, 1.0 μM
[2] = relative to baseline of no added compound, read-out: Fold myelin pixels above background, 10.0 μM
[3] = read-out: Fold myelin pixels above background relative to baseline of no added compound
[4] = relative to baseline of no added compound, read-out: Fold myelin pixels above background

Row | Structure (SMILES) | fold induction at 1 µM [1] | fold induction at 10 µM [2] | further results
1 | Cc1cc(Nc2ncn(-c3cc(F)cc(F)c3)n2)cc(N2CCN(CC(=O)O)CC2)c1 [Compound 125, 2-[4-[3-[[1-(3,5-difluorophenyl)-1,2,4-triazol-3-yl]amino]-5-methyl-phenyl]piperazin-1-yl]acetic acid] | 10 to 100 | 1 to 10 | –
2 | Fc1cc(Nc2ncn(-c3ccc(F)cc3F)n2)cc(NC2CNC2)c1 [Compound 177, N1-(azetidin-3-yl)-N3-[1-(2,4-difluorophenyl)-1,2,4-triazol-3-yl]-5-fluoro-benzene-1,3-diamine] | ≤ 1 | ≤ 1 | –
3 | Cc1cc(Nc2ncn(-c3cc(F)cc(NCCO)c3)n2)cc(N2CC(F)C2)c1 [Compound 852, 2-[3-fluoro-5-[3-[3-(3-fluoroazetidin-1-yl)-5-methyl-anilino]-1,2,4-triazol-1-yl]anilino]ethanol] | – | – | fold induction at 1 µM [3]: 1 to 10; fold induction at 10 µM [3]: ≤ 1
4 | Cc1cc(Nc2ncn(-c3ccc(F)c(F)c3)n2)cc(NC2CCN(C3COC3)CC2)c1 [Compound 278, N3-[1-(3,4-difluorophenyl)-1,2,4-triazol-3-yl]-5-methyl-N1-[1-(oxetan-3-yl)-4-piperidyl]benzene-1,3-diamine] | 100 to 1000 | 1 to 10 | –
5 | Cc1cc(Nc2ncn(-c3cc(F)cc(F)c3)n2)cc(N2CCNC(C)C2)c1 (stereo not drawn) [Compound 362, 1-(3,5-difluorophenyl)-N-[3-methyl-5-(3-methylpiperazin-1-yl)phenyl]-1,2,4-triazol-3-amine] | 100 to 1000 | ≤ 1 | –
6 | Fc1cc(F)cc(-n2cnc(Nc3cc(N4CCN(C5COC5)CC4)nc(C(F)(F)F)c3)n2)c1 [Compound 760, N-[1-(3,5-difluorophenyl)-1,2,4-triazol-3-yl]-2-[4-(oxetan-3-yl)piperazin-1-yl]-6-(trifluoromethyl)pyridin-4-amine] | – | – | fold induction at 1 µM [4]: 1 to 10; fold induction at 10 µM [4]: ≤ 1
7 | Cc1cc(Nc2ncn(-c3cc(F)cc(F)c3)n2)cc(NC2CCOC2)c1 (stereo not drawn) [Compound 8, N3-[1-(3,5-difluorophenyl)-1,2,4-triazol-3-yl]-5-methyl-N1-tetrahydrofuran-3-yl-benzene-1,3-diamine] | 100 to 1000 | 1 to 10 | –
8 | Cc1cc(Nc2ncn(-c3cc(F)cc(F)c3)n2)cc(N[C@H]2C[C@H](N3CCOCC3)C2)c1 (single isomer, unassigned) [Compound 649, N1-[1-(3,5-difluorophenyl)-1,2,4-triazol-3-yl]-5-methyl-N3-(3-morpholinocyclobutyl)benzene-1,3-diamine] | – | – | fold induction at 1 µM [4]: 10 to 100; fold induction at 10 µM [4]: ≤ 1
9 | CC1CCN(c2cc(Nc3ncn(-c4ccc(F)c(F)c4)n3)cc(C3CC3)n2)CC1 [Compound 202, 2-cyclopropyl-N-[1-(3,4-difluorophenyl)-1,2,4-triazol-3-yl]-6-(4-methyl-1-piperidyl)pyridin-4-amine] | 100 to 1000 | 10 to 100 | –
10 | Cc1cc(Nc2ncn(-c3cc(F)cc(F)c3)n2)cc(N2CC(N3CCOC(C)(C)C3)C2)c1 [Compound 602, 1-(3,5-difluorophenyl)-N-[3-[3-(2,2-dimethylmorpholin-4-yl)azetidin-1-yl]-5-methyl-phenyl]-1,2,4-triazol-3-amine] | – | – | fold induction at 1 µM [4]: 1 to 10; fold induction at 10 µM [4]: 1 to 10
11 | CC1CCN(c2cc(Nc3ncn(-c4ccccc4)n3)cc(C3CC3)n2)CC1 [Compound 44, 2-cyclopropyl-6-(4-methyl-1-piperidyl)-N-(1-phenyl-1,2,4-triazol-3-yl)pyridin-4-amine] | 1000 to 10000 | 1000 to 10000 | –
12 | Cc1cc(Nc2ncn(-c3ccccc3)n2)cc(N2CCN(C3CCCOC3)CC2)c1 (stereo not drawn) [Compound 172, N-[3-methyl-5-(4-tetrahydropyran-3-ylpiperazin-1-yl)phenyl]-1-phenyl-1,2,4-triazol-3-amine] | 1000 to 10000 | 1 to 10 | –
13 | Cc1cc(Nc2ncn(-c3cc(F)cc(F)c3)n2)cc(N2CC(N3CCCOCC3)C2)c1 [Compound 808, 1-(3,5-difluorophenyl)-N-[3-methyl-5-[3-(1,4-oxazepan-4-yl)azetidin-1-yl]phenyl]-1,2,4-triazol-3-amine] | – | – | fold induction at 1 µM [3]: 10 to 100; fold induction at 10 µM [3]: ≤ 1
14 | COc1cc(Nc2ncn(-c3ccc(Cl)c(F)c3)n2)nc(N2CCN(C3COC3)CC2)c1 [Compound 758, N-[1-(4-chloro-3-fluoro-phenyl)-1,2,4-triazol-3-yl]-4-methoxy-6-[4-(oxetan-3-yl)piperazin-1-yl]pyridin-2-amine] | – | – | fold induction at 1 µM [4]: 10 to 100; fold induction at 10 µM [4]: 10 to 100
15 | Cc1cc(Nc2ncn(-c3ccccc3)n2)nc(N2CC(N3CCOCC3)C2)c1 [Compound 502, 4-methyl-6-(3-morpholinoazetidin-1-yl)-N-(1-phenyl-1,2,4-triazol-3-yl)pyridin-2-amine] | – | – | fold induction at 1 µM [4]: 1 to 10; fold induction at 10 µM [4]: ≤ 1
16 | Cc1cc(Nc2ncn(-c3cc(F)cc(F)c3)n2)cc([C@@H]2CCN(C3COC3)C2)c1 (single isomer, unassigned) [Compound 92] | 1000 to 10000 | 100 to 1000 | –
17 | FC(F)(F)c1cc(Nc2ncn(-c3cnccn3)n2)cc(N2CCN(C3COC3)CC2)c1 [Compound 514, N-[3-[4-(oxetan-3-yl)piperazin-1-yl]-5-(trifluoromethyl)phenyl]-1-pyrazin-2-yl-1,2,4-triazol-3-amine] | – | – | fold induction at 1 µM [4]: 10 to 100; fold induction at 10 µM [4]: 100 to 1000
18 | Fc1cc(Nc2ncn(-c3cccc(C(F)(F)F)c3)n2)cc(N2CCCC2)c1 [Compound 241, N-(3-fluoro-5-pyrrolidin-1-yl-phenyl)-1-[3-(trifluoromethyl)phenyl]-1,2,4-triazol-3-amine] | ≤ 1 | ≤ 1 | –
19 | Cc1cc(Nc2ncn(-c3cc(F)cc(F)c3)n2)cc(N2CCN(CCO)CC2)c1 [Compound 1036, 2-[4-[3-[[1-(3,5-difluorophenyl)-1,2,4-triazol-3-yl]amino]-5-methyl-phenyl]piperazin-1-yl]ethanol] | – | – | fold induction at 1 µM [3]: ≤ 1; fold induction at 10 µM [3]: ≤ 1
20 | Cc1cc(Nc2ncn(-c3cnccn3)n2)cc(C2CCCN(C3COC3)C2)c1 (stereo not drawn) [Compound 74, N-[3-methyl-5-[1-(oxetan-3-yl)-3-piperidyl]phenyl]-1-pyrazin-2-yl-1,2,4-triazol-3-amine] | 100 to 1000 | 100 to 1000 | –
21 | COc1c(F)cc(-n2cnc(Nc3cc(C)cc(N4CCN(C5COC5)CC4)c3)n2)cc1F [Compound 646, 1-(3,5-difluoro-4-methoxy-phenyl)-N-[3-methyl-5-[4-(oxetan-3-yl)piperazin-1-yl]phenyl]-1,2,4-triazol-3-amine] | – | – | fold induction at 1 µM [4]: 10 to 100; fold induction at 10 µM [4]: 1 to 10
22 | Cc1cc(Nc2ncn(-c3cccc(F)c3)n2)c(F)c(OC2CCOC2)c1 (stereo not drawn) [Compound 913, N-(2-fluoro-5-methyl-3-tetrahydrofuran-3-yloxy-phenyl)-1-(3-fluorophenyl)-1,2,4-triazol-3-amine] | – | – | fold induction at 1 µM [3]: 10 to 100; fold induction at 10 µM [3]: 10 to 100
23 | CCc1cc(Nc2ncn(-c3ccc(OC(F)(F)F)cc3)n2)cc(N2CCN(C3COC3)CC2)c1 [Compound 303, N-[3-ethyl-5-[4-(oxetan-3-yl)piperazin-1-yl]phenyl]-1-[4-(trifluoromethoxy)phenyl]-1,2,4-triazol-3-amine] | 1 to 10 | 1 to 10 | –
24 | CC(F)(F)c1cc(Nc2ncn(-c3cccc(F)c3)n2)nc(N2CCN(C3COC3)CC2)c1 [Compound 860, 4-(1,1-difluoroethyl)-N-[1-(3-fluorophenyl)-1,2,4-triazol-3-yl]-6-[4-(oxetan-3-yl)piperazin-1-yl]pyridin-2-amine] | – | – | fold induction at 1 µM [3]: 10 to 100; fold induction at 10 µM [3]: 1 to 10
25 | CC(C)c1cc(Nc2ncn(-c3cnccn3)n2)cc(N2CCN(C3COC3)CC2)c1 [Compound 536, N-[3-isopropyl-5-[4-(oxetan-3-yl)piperazin-1-yl]phenyl]-1-pyrazin-2-yl-1,2,4-triazol-3-amine] | – | – | fold induction at 1 µM [4]: 100 to 1000; fold induction at 10 µM [4]: 100 to 1000
26 | Cc1cc(Nc2ncn(-c3cc(F)cc(F)c3)n2)cc(N2CC(N3C[C@@H](C)O[C@H](C)C3)C2)c1 [Compound 857, 1-(3,5-difluorophenyl)-N-[3-[3-[(2R,6R)-2,6-dimethylmorpholin-4-yl]azetidin-1-yl]-5-methyl-phenyl]-1,2,4-triazol-3-amine] | – | – | fold induction at 1 µM [3]: 10 to 100; fold induction at 10 µM [3]: 10 to 100
27 | Cc1cc(Nc2ncn(-c3cc(F)cc(N4CC[C@@H](C(C)(C)O)C4)c3)n2)cc(N2CCN(C3COC3)CC2)c1 [Compound 318, 2-[(3R)-1-[3-fluoro-5-[3-[3-methyl-5-[4-(oxetan-3-yl)piperazin-1-yl]anilino]-1,2,4-triazol-1-yl]phenyl]pyrrolidin-3-yl]propan-2-ol] | 10 to 100 | ≤ 1 | –
28 | Fc1cc(F)cc(-n2cnc(Nc3cc(C4CC4)nc(N4CC[C@H](F)C4)c3)n2)c1 [Compound 332, 2-cyclopropyl-N-[1-(3,5-difluorophenyl)-1,2,4-triazol-3-yl]-6-[(3S)-3-fluoropyrrolidin-1-yl]pyridin-4-amine] | 100 to 1000 | 10 to 100 | –
29 | Cc1cc(Nc2ncn(-c3cc(F)cc(F)c3)n2)cc(OCCn2cccn2)c1 [Compound 832, 1-(3,5-difluorophenyl)-N-[3-methyl-5-(2-pyrazol-1-ylethoxy)phenyl]-1,2,4-triazol-3-amine] | – | – | fold induction at 1 µM [3]: 10 to 100; fold induction at 10 µM [3]: 10 to 100
30 | Cc1cc(Nc2ncn(-c3ccncc3)n2)cc(N2CCN(C3COC3)CC2)c1 [Compound 224, N-[3-methyl-5-[4-(oxetan-3-yl)piperazin-1-yl]phenyl]-1-(4-pyridyl)-1,2,4-triazol-3-amine] | 100 to 1000 | 10 to 100 | –
